Measurements from patent US7341998B2 (The Board of Trustees of the Leland Stanford Junior …, priority 2005, dated 2008).

Target: voltage-gated Na channels
Assay type: cell-based, squid (Loligo opalescens)

## MKLTCVLVVLLLLLPYGDLITNNYIRGAARKVTPWRRNLKTRDVCDSLVGGHCIHNGCWCDQEAPHGNCCDTDGCTAAWWCPGTKWD [calTx1.1A]
  Ki: ~15 nM
  Na-channel blocking activity (block): 55%
  reversibility of INa reduction/block: reversibly blocked INa
  steady-state voltage-dependence of fast inactivation of residual INa: not significantly affected
  time course of residual prepulse-sensitive INa: not significantly different than normal
  voltage dependence of block: potency decreasing e-fold in: 300-400 mV
